# Results reported in the OligoGym collection.
# Oligonucleotides are written 5' to 3', each unit as a sugar letter and its base; * is a phosphorothioate linkage, no mark a phosphodiester; rarer units and linkages stand in square brackets, end groups in braces. Plain capitals give the bases only. d = 2'-deoxy (DNA); r = 2'-OH (RNA)
# Target: UBE2L3
# Assay: reporter assay of Huesken 2005
# Conditions: siRNA
# Further: test concentration or dose not given here.
row,Substance,normalised inhibition (eCFP-eYFP dual reporter)
1,sense rUrArUrCrArCrCrCrArArArCrArUrCrGrArCrGdTdT / antisense rCrGrUrCrGrArUrGrUrUrUrGrGrGrUrGrArUrAdGdA,57%
2,sense rUrCrCrArGrGrUrUrGrArUrGrArArGrCrUrArAdTdT / antisense rUrUrArGrCrUrUrCrArUrCrArArCrCrUrGrGrAdTdG,112%
3,sense rCrCrGrUrArArCrArUrCrCrArGrGrUrUrGrArUdTdT / antisense rArUrCrArArCrCrUrGrGrArUrGrUrUrArCrGrGdAdA,61.4%
4,sense rCrCrArGrUrArArUrUrArGrUrGrCrCrGrArArAdTdT / antisense rUrUrUrCrGrGrCrArCrUrArArUrUrArCrUrGrGdCdA,82.8%
5,sense rUrUrCrArArArCrCrArCrCrGrArArGrArUrCrAdTdT / antisense rUrGrArUrCrUrUrCrGrGrUrGrGrUrUrUrGrArAdTdG,65.9%
6,sense rCrArGrGrUrUrGrArUrGrArArGrCrUrArArUrUdTdT / antisense rArArUrUrArGrCrUrUrCrArUrCrArArCrCrUrGdGdA,96.7%
7,sense rUrUrGrArCrUrUrGrGrCrArArGrGrGrCrUrUrAdTdT / antisense rUrArArGrCrCrCrUrUrGrCrCrArArGrUrCrArAdTdA,61.9%
8,sense rCrCrArArArCrArUrCrGrArCrGrArArArArGrGdTdT / antisense rCrCrUrUrUrUrCrGrUrCrGrArUrGrUrUrUrGrGdGdT,59.4%
9,sense rGrCrUrGrArCrCrUrArGrCrUrGrArArGrArArUdTdT / antisense rArUrUrCrUrUrCrArGrCrUrArGrGrUrCrArGrCdCdC,70.1%
10,sense rGrArCrCrUrArGrCrUrGrArArGrArArUrArCrUdTdT / antisense rArGrUrArUrUrCrUrUrCrArGrCrUrArGrGrUrCdAdG,102%
11,sense rGrCrUrArArUrUrUrArUrUrGrArCrUrUrGrGrCdTdT / antisense rGrCrCrArArGrUrCrArArUrArArArUrUrArGrCdTdT,46.2%

# Target: UBE2J1
# Assay: reporter assay of Huesken 2005
# Conditions: siRNA
row,Substance,normalised inhibition (eCFP-eYFP dual reporter)
1,sense rGrUrUrGrCrCrUrUrUrArArArArUrCrUrGrGrAdTdT / antisense rUrCrCrArGrArUrUrUrUrArArArGrGrCrArArCdAdG,55.2%
2,sense rCrCrCrArArCrCrUrGrUrArGrCrUrArArGrArAdTdT / antisense rUrUrCrUrUrArGrCrUrArCrArGrGrUrUrGrGrGdTdA,78.5%
3,sense rCrUrGrArCrCrArArGrArArGrCrCrArArArGrAdTdT / antisense rUrCrUrUrUrGrGrCrUrUrCrUrUrGrGrUrCrArGdCdT,73.1%
4,sense rCrArGrArArGrUrCrArArUrUrCrArUrCrUrGrGdTdT / antisense rCrCrArGrArUrGrArArUrUrGrArCrUrUrCrUrGdCdC,60.5%
5,sense rGrCrCrArCrCrArGrArGrUrArUrCrCrCrArUrGdTdT / antisense rCrArUrGrGrGrArUrArCrUrCrUrGrGrUrGrGrCdAdG,53.6%
6,sense rCrUrGrArCrUrUrUrGrGrCrArUrUrGrGrCrArGdTdT / antisense rCrUrGrCrCrArArUrGrCrCrArArArGrUrCrArGdGdA,76.4%
7,sense rCrArArArUrArArGrCrUrUrUrArArGrGrCrArGdTdT / antisense rCrUrGrCrCrUrUrArArArGrCrUrUrArUrUrUrGdCdC,56%
8,sense rArUrArUrArUrCrUrGrGrCrArArArCrGrArArUdTdT / antisense rArUrUrCrGrUrUrUrGrCrCrArGrArUrArUrArUdTdC,95.9%
9,sense rGrCrGrCrCrGrGrGrCrCrCrArGrCrArGrCrArGdTdT / antisense rCrUrGrCrUrGrCrUrGrGrGrCrCrCrGrGrCrGrCdTdG,35.3%
10,sense rUrGrUrCrUrArCrUrUrCrArCrCrArGrArUrGrUdTdT / antisense rArCrArUrCrUrGrGrUrGrArArGrUrArGrArCrAdAdC,73.1%
11,sense rArCrArGrCrArUrUrArUrUrArGrCrCrArUrCrAdTdT / antisense rUrGrArUrGrGrCrUrArArUrArArUrGrCrUrGrUdCdC,54.7%
12,sense rArCrArArArArGrGrArGrArGrGrGrArGrCrCrAdTdT / antisense rUrGrGrCrUrCrCrCrUrCrUrCrCrUrUrUrUrGrUdTdG,41.7%
13,sense rGrCrUrGrUrArCrUrGrArUrUrGrUrCrArUrCrCdTdT / antisense rGrGrArUrGrArCrArArUrCrArGrUrArCrArGrCdTdG,62.4%
14,sense rUrCrUrGrUrUrUrGrArGrCrArUrCrUrCrArGrGdTdT / antisense rCrCrUrGrArGrArUrGrCrUrCrArArArCrArGrAdTdT,56%
15,sense rArGrGrArArArGrArArGrArGrCrArCrUrUrGrCdTdT / antisense rGrCrArArGrUrGrCrUrCrUrUrCrUrUrUrCrCrUdCdA,70.7%
16,sense rUrGrGrUrGrGrGrUrCrArGrCrUrGrUrArCrUrGdTdT / antisense rCrArGrUrArCrArGrCrUrGrArCrCrCrArCrCrAdTdG,83.4%
17,sense rUrGrCrCrArArCrArArArArGrGrArGrArGrGrGdTdT / antisense rCrCrCrUrCrUrCrCrUrUrUrUrGrUrUrGrGrCrAdTdA,28.7%
18,sense rCrCrGrGrGrCrCrCrArGrCrArGrCrArGrArGrUdTdT / antisense rArCrUrCrUrGrCrUrGrCrUrGrGrGrCrCrCrGrGdCdG,47.4%
19,sense rArUrGrGrUrCrGrArUrUrUrGrArArGrUrGrGrGdTdT / antisense rCrCrCrArCrUrUrCrArArArUrCrGrArCrCrArUdTdA,56.3%
20,sense rUrGrGrCrArArArCrGrArArUrArCrArUrArUrUdTdT / antisense rArArUrArUrGrUrArUrUrCrGrUrUrUrGrCrCrAdGdA,110%
21,sense rUrArArCrGrGrCrUrArArUrGrGrUrCrGrArUrUdTdT / antisense rArArUrCrGrArCrCrArUrUrArGrCrCrGrUrUrAdGdG,84%
22,sense rGrArGrUrArUrArArGrGrArCrArGrCrArUrUrAdTdT / antisense rUrArArUrGrCrUrGrUrCrCrUrUrArUrArCrUrCdCdA,91.4%
23,sense rArGrArGrArArGrGrUrUrGrUrCrUrArCrUrUrCdTdT / antisense rGrArArGrUrArGrArCrArArCrCrUrUrCrUrCrUdGdA,78.8%
24,sense rUrUrCrArCrUrArArCrUrGrArUrUrUrArCrArAdTdT / antisense rUrUrGrUrArArArUrCrArGrUrUrArGrUrGrArAdAdA,67.5%
25,sense rGrArCrCrArArGrArArGrCrCrArArArGrArArCdTdT / antisense rGrUrUrCrUrUrUrGrGrCrUrUrCrUrUrGrGrUrCdAdG,56.7%
26,sense rUrArUrCrUrGrGrCrArArArCrGrArArUrArCrAdTdT / antisense rUrGrUrArUrUrCrGrUrUrUrGrCrCrArGrArUrAdTdA,91.6%
